# Measurements from article PMC3132048, “Treatment of experimental adjuvant arthritis with a novel folate receptor-targeted folic acid-aminopterin conjugate” (Arthritis Research & Therapy, 2011).
# Marks after values point to notes of the source that are not given here.
# Key:
# rat TG-macs = experiment: Viability of thioglycollate-elicited peritoneal macrophages; assay type: cell-based; conditions: 72-hour incubation; no effect at concentrations as high as stated
# Experimental: Female Lewis rats (175 to 200 g) were purchased from Harlan Sprague Dawley (Indianapolis, IN, USA) and were allowed to acclimate for 1 week. To obtain peritoneal macrophages, rats were dosed intraperitoneally with an aged thioglycollate (TG) medium (20 ml/kg) and euthanized 3 days later. The peritoneal cavity of the animals was lavaged with 60 ml ice-cold phosphate-buffered saline to collect peritoneal exudate. The TG-elicited macrophages in the peritoneal fluids were obtained after a red cell lysing step and a 2-hour adherence in folate-free RPMI 1640 medium (Mediatech, Manassas, VA, USA) containing 1% heat-activated fetal calf serum and antibiotics. The purity of the resulting macrophage population (herein referred to as rat TG-macs) was determined to be ~90% pure based on CD11b/c expression (data not shown). […] Unless otherwise specified, all cells were maintained in the folate-free RPMI 1640 medium containing 10% heat-activated fetal calf serum and antibiotics (FFRPMI) under a 5% CO2 atmosphere.
# Unlike RAW264.7 cells, rat TG-macs display little proliferative activity ex vivo and therefore were used in our studies to represent inflammatory macrophages in a low proliferative state. […] LPS (5 μg/ml) and IFNγ (100 ng/ml) were then added to the treated cells 24 hours prior to the end of incubation to stimulate the release of cytokines/chemokines, which were then detected with a rat cytokine antibody array.
# [1] = tested on: cytokine/chemokine release by rat TG-macs; experiment: Rat cytokine array analysis after LPS/IFNγ co-stimulation; assay type: cell-based; conditions: 100 nM, 2-hour pulse, 70-hour chase, LPS 5 μg/ml plus IFNγ 100 ng/ml last 24 hours
# Experimental: This analysis was performed on rat TG-macs to compare EC0746 against AMT and MTX for their abilities to inhibit cytokine production after LPS/IFNγ co-stimulation. Using our standard condition of 2-hour pulse plus a 70-hour chase period, rat TG-macs (harvested the day before) were given vehicle (media only), EC0746 (100 nM), EC0746 (100 nM) plus 100-fold molar excess of FA (10 μM), or FA alone (10 μM). For unconjugated base drugs, 100 nM AMT and MTX were present continuously for the entire 72-hour incubation period. Twenty-four hours prior to the end of incubation, LPS (5 μg/ml) and IFNγ (100 ng/ml) were added to the cells to stimulate cytokine production. The presence of cytokines/chemokines in the culture media was detected using a rat cytokine antibody array kit (R&D Systems) capable of detecting 29 analytes in duplicate spots. The total pixel intensity for each spot in the array was quantitated using the NIH ImageJ software, subtracted from the background, and averaged for each analyte.
# [2] = molecular target: T1, dihydrofolate reductase (DHFR) (Mus musculus, UniProt P00375); experiment: Dihydrofolate reductase inhibition assay in RAW264.7 whole cell lysates; assay type: cell-based, murine; conditions: 100 nM plus 100-fold excess FA (10 μM), 2-hour pulse, 22-hour chase
# T1 construct: endogenous in cells; host or cells: RAW264.7 cells (FR-positive subclone of ATCC TIB71)
# T1 sequence (P00375 1-187): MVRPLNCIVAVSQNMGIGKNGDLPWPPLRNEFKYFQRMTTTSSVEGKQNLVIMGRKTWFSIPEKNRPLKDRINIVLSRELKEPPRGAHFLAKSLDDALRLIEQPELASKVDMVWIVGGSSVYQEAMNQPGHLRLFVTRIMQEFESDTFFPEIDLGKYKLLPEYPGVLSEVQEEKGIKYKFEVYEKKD
# Experimental: RAW264.7 cells growing in FFRPMI medium in 10 cm cell culture dishes (BD Falcon, Lincoln Park, NJ, USA) were treated with EC0746 (100 nM), EC0746 (100 nM) plus 100-fold molar excess of FA (10 μM), or FA alone (10 μM). After a 2-hour exposure, the drug-containing media were replaced and the cells were allowed to incubate further for 22 hours in fresh FFRPMI medium (referred in the text as a 22-hour chase). Meanwhile, AMT and MTX were kept at 100 nM for the entire 24-hour incubation period. All cells were subsequently lysed in the radioimmunoprecipitation assay lysis buffer, and DHFR activities in the whole cell lysates were determined using a commercial DHFR assay kit (Sigma-Aldrich). This spectrophotometric assay monitors the enzymatic conversion of dihydrofolic acid to tetrahydrofolic acid by DHFR and the disappearance of the co-factor nicotinamide adenine dinucleotide phosphate at 340 nm. The results were normalized to the values of the untreated control cells.
# [3] = tested on: adjuvant-induced arthritis; experiment: Rat adjuvant-induced arthritis (AIA) model; assay type: in vivo; conditions: for Inhibition in paw edema (%): paw weight day 24; for Body weight change (%): day 24 relative to day 10
# Experimental: The rats were then inoculated intradermally (at the base of tail) with 0.5 mg heat-killed M. butyricum (BD Diagnostic Systems) in 100 μl light mineral oil (Sigma-Aldrich, St Louis, MO, USA). […] For each study, two or three rats from the same colony were not induced for arthritis and were used as healthy controls.
# Unless noted otherwise, all drug treatments started on day 10 after arthritis induction and lasted for two consecutive weeks with biweekly (BIW, Mondays and Thursdays) or once-weekly (QW, Mondays) dosing regimens.
# EC0746 was given subcutaneously (s.c.) in a dosing range of 25 to 1,000 nmol/kg (QW or BIW); MTX was given s.c. or orally at 250 nmol/kg (BIW) or 1,650 nmol/kg (QW); and etanercept (10 mg/kg) was given s.c. once every 3 days for a 12-day span. The QW MTX dosing regimen was to mimic MTX administration in humans, and this particular dose of 1,650 nmol/kg per week (that is, 0.75 mg/kg per week) was reportedly active as an intraperitoneal agent in the AIA model. To distinguish the anti-inflammatory mechanisms of EC0746 and MTX in vivo, a therapeutically irrelevant folate-containing competitor (EC0923, molecular weight 672) was used in 500-fold molar excess to block the activities of EC0746 and MTX at 250 nmol/kg (BIW).
# Formalin-fixed hind paws were examined by a board-certified veterinary radiologist who had no knowledge of the study groups. Specific criteria were used to establish a numerical grade of severity for each radiographic change: increased soft tissue volume (0 to 4), narrowing or widening of joint spaces (0 to 5), subchondral erosion (0 to 3), periosteal reaction (0 to 4), osteolysis (0 to 4), subluxation (0 to 3), and degenerative joint changes (0 to 3). Scores are limited to the tarsus, and the maximum possible score per foot was 26 [39]. The histopathological analysis was also performed in a blind fashion by an independent contract laboratory (Bolder BioPATH Inc., Boulder, CO, USA). The arthritic ankles were scored on a scale of 0 to 5 for inflammation, bone resorption, pannus formation, and cartilage damage, with a maximal histology score of 20 per foot.
# [4] = preliminary study, 500 nmol/kg s.c. biweekly, low starting arthritis
# [5] = preliminary study, 500 nmol/kg s.c. biweekly, more established disease
# [6] = s.c., 25 nmol/kg biweekly from day 10
# [7] = s.c., 100 nmol/kg biweekly from day 10
# [8] = s.c., 250 nmol/kg biweekly from day 10
# [9] = s.c., 250 nmol/kg biweekly plus 500-fold excess EC0923
# [10] = s.c., 250 nmol/kg biweekly, alone
# [11] = s.c., 500 nmol/kg biweekly from day 10
# [12] = s.c., 1,000 nmol/kg once weekly
smiles,measurement,setting,value
Nc1nc(N)c2nc(CNc3ccc(C(=O)N[C@@H](CCC(=O)NNC(=O)OCCSSC[C@H](NC(=O)[C@H](CCC(=O)NC[C@H](O)[C@@H](O)[C@H](O)[C@H](O)CO)NC(=O)[C@H](CCC(=O)O)NC(=O)[C@H](CCC(=O)NC[C@H](O)[C@@H](O)[C@H](O)[C@H](O)CO)NC(=O)[C@H](CCC(=O)O)NC(=O)[C@H](CCC(=O)NC[C@H](O)[C@@H](O)[C@H](O)[C@H](O)CO)NC(=O)CC[C@H](NC(=O)c4ccc(NCc5cnc6nc(N)[nH]c(=O)c6n5)cc4)C(=O)O)C(=O)O)C(=O)O)cc3)cnc2n1 [EC0746],Concentration affecting TG-macs viability,rat TG-macs,> 10 µM
same,Number of released cytokines/chemokines (of ~19) showing FR-specific inhibition,[1],11
same,DHFR inhibitory activity with excess FA,[2],blocked by excess FA
same,Improvement in paw edema (percentage increase in paw weight),[3]; [4],~ 10 fold
same,Improvement in splenomegaly (percentage increase in spleen weight),[3]; [4],threefold
same,Arthritis score maintained throughout study,"[3]; preliminary study, 500 nmol/kg s.c. biweekly, mean starting arthritis score ~0 on day 10, score max 16",~ 1
same,Maximum reduction in arthritic scores,"[3]; preliminary study, 500 nmol/kg s.c. biweekly, mean starting arthritis score ~2 (established disease)",~ 50%
same,Improvement in paw edema (percentage increase in paw weight),[3]; [5],~ 2.5 fold
same,Improvement in splenomegaly (percentage increase in spleen weight),[3]; [5],twofold
same,Splenomegaly (percentage increase in spleen weight relative to healthy rats),[3]; [6],73 ± 8^e %
same,Inhibition in paw edema (%),[3]; [6],0 ± 25^d %
same,Body weight change (%),"[3]; s.c., 25 nmol/kg biweekly",-17 ± 1%
same,Splenomegaly (percentage increase in spleen weight relative to healthy rats),[3]; [7],52 ± 13^e %
same,Inhibition in paw edema (%),[3]; [7],35 ± 11^d %
same,Body weight change (%),"[3]; s.c., 100 nmol/kg biweekly",-14 ± 1%
same,Animals with no lesions (histopathology of ankle),"[3]; s.c., 250 nmol/kg biweekly",three out of five
same,Decrease in summed histology scores,"[3]; s.c., 250 nmol/kg biweekly",94%
same,Reduction in dorsal to ventral paw thickness,"[3]; s.c., 250 nmol/kg biweekly",94%
same,Splenomegaly (percentage increase in spleen weight relative to healthy rats),[3]; [8],25 ± 6^e %
same,Inhibition in paw edema (%),[3]; [8],91 ± 4^d %
same,Decrease in inflammation score (histology),[3]; [9],24%
same,Decrease in summed histology scores,[3]; [9],~ 19%
same,Reduction in dorsal to ventral paw thickness,[3]; [9],22%
same,Anti-arthritic activity with co-administered EC0923,"[3]; s.c., 250 nmol/kg biweekly plus 500-fold molar excess EC0923 (125 μmol/kg), all clinical parameters",nearly completely blocked
same,Radiographic analysis of arthritic paws,"[3]; s.c., 250 nmol/kg biweekly plus EC0923 125 μmol/kg",significant joint erosions
same,"Anti-arthritic activity (arthritis score, body weight, paw and spleen weights)",[3]; [10],highly effective
same,Radiographic analysis of arthritic paws,[3]; [10],minimal radiographic changes
same,Body weight change (%),"[3]; s.c., 250 nmol/kg biweekly",-0.5 ± 3%
same,Improvement in splenomegaly,"[3]; s.c., 250 nmol/kg per dose biweekly, printed >3-fold to fourfold",> 3 fold
same,Splenomegaly (percentage increase in spleen weight relative to healthy rats),[3]; [11],37 ± 7%
same,Inhibition in paw edema (%),[3]; [11],91 ± 9%
same,Body weight change (%),"[3]; s.c., 500 nmol/kg biweekly",0.4 ± 4%
same,Loss of original body weight due to arthritis progression,[3]; [12],~ 7%
same,Splenomegaly (percentage increase in spleen weight relative to healthy rats),[3]; [12],39 ± 5%
same,Inhibition in paw edema (%),"[3]; s.c., 1,000 nmol/kg once weekly (days 10 and 17)",72 ± 12%
same,Body weight change (%),[3]; [12],-7 ± 3%
